Source: PMC8776995 (Frontiers in Chemistry, 2022)
Where “and” joins values, the source holds several entries; their conditions need not be identical. Equal values may be shown once. Read-outs that look alike come from different tables or passages of the source.

What was measured:
H1975 cells = experiment: CCK-8 antiproliferation assay, H1975; conditions: for Inhibitory efficacy: H1975 cells
wild-type EGFR = wild-type EGFR (Homo sapiens, UniProt P00533); experiment: EGFR kinase assay (ELISA); conditions: for IC50: IC50 (μM) EGFR, ELISA, 3 μmol/L ATP
wild-type EGFR, sequence (P00533 25-1210): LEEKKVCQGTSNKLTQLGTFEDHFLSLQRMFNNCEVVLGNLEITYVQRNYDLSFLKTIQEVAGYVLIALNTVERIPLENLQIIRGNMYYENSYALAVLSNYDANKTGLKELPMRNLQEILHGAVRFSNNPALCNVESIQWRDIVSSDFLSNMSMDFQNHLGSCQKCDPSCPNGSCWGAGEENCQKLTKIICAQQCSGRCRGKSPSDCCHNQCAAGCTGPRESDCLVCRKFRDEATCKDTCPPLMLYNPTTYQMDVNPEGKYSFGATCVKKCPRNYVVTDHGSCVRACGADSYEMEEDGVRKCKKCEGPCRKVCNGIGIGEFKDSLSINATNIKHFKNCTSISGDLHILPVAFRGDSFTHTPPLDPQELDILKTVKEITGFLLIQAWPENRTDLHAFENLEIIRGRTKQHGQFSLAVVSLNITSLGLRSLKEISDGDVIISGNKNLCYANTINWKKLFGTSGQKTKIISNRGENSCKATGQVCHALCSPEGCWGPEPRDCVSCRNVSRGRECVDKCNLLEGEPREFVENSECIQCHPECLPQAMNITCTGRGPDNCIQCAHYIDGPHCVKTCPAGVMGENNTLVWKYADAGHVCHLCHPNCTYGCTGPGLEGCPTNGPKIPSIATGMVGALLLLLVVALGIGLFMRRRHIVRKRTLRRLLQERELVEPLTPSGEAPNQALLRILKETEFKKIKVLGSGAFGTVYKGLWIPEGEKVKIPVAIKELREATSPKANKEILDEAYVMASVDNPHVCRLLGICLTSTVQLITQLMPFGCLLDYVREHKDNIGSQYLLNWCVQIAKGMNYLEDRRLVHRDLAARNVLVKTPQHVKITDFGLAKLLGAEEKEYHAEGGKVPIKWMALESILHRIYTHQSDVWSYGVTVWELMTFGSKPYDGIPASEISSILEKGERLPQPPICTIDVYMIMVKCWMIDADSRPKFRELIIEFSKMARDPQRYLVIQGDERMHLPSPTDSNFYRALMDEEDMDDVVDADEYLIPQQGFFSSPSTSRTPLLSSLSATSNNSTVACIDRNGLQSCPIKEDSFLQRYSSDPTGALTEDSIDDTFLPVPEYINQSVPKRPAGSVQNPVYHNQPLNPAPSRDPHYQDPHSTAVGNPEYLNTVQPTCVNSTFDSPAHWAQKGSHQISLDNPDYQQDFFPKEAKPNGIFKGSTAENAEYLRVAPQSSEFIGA

PC-9 cells = experiment: CCK-8 antiproliferation assay, PC-9; conditions: for IC50 / inhibition at 4 µM / inhibition at 8 µM / inhibition at 16 µM: Homo sapiens; for IC50: PC-9, 48 h, read-out: IC50 (μM) PC-9; for inhibition at 4 µM: PC-9, read-out: Inhibitory efficacy, PC-9, 4uM, single repeats (Repeat 1-3), given as fraction; for inhibition at 8 µM: PC-9, read-out: Inhibitory efficacy, PC-9, 8uM, single repeats (Repeat 1-3), given as fraction; for inhibition at 16 µM: PC-9, read-out: Inhibitory efficacy, PC-9, 16uM, single repeats (Repeat 1-3), given as fraction; for Inhibitory efficacy: single repeats (Repeat 1-3), given as fraction
H460 cells = experiment: CCK-8 antiproliferation assay, H460; conditions: for Inhibitory efficacy: single repeats (Repeat 1-3), given as fraction; for inhibition at 2 µM: NCI-H460, read-out: Inhibitory efficacy, H460, 2uM, single repeats (Repeat 1-3), given as fraction; for inhibition at 4 µM: NCI-H460, read-out: Inhibitory efficacy, H460, 4uM, single repeats (Repeat 1-3), given as fraction; for inhibition at 8 µM: NCI-H460, read-out: Inhibitory efficacy, H460, 8uM, single repeats (Repeat 1-3), given as fraction; for inhibition at 16 µM: NCI-H460, read-out: Inhibitory efficacy, H460, 16uM, single repeats (Repeat 1-3), given as fraction
Method: The compounds were dissolved in DMSO to make a 20 μM stock solution and diluted to the concentration of working solutions with complete growth medium before administration.
Cells were seeded in 96-well plates: 3,000–5,000 cells/well in 100 ul. One day after seeding, the test compounds at concentration between 1.0 and 16.0 μ M or 0.1% DMSO (as control) were added to cells in triplicate. 48 h later, CCK-8 was added and incubated the plate for 1–4 h in the incubator. The absorbance at 450 nm were measured using a microplate reader (Bio-Tek).

A549 cells = experiment: CCK-8 antiproliferation assay, A549; conditions: for Inhibitory efficacy: A549 cells
[1] = 1uM, given as fraction, Repeat 1-3
[2] = 2uM, given as fraction, Repeat 1-3
[3] = 4uM, given as fraction, Repeat 1-3
[4] = 8uM, given as fraction, Repeat 1-3
[5] = 16uM, given as fraction, Repeat 1-3
[6] = Homo sapiens, NCI-H1975, 48 h, read-out: IC50 (μM) H1975, CCK-8, 48 h, average ± SD of three independent experiments
[7] = Homo sapiens, NCI-H1975, read-out: Inhibitory efficacy, H1975 cells, 1uM, given as fraction, Repeat 1-3
[8] = Homo sapiens, NCI-H1975, read-out: Inhibitory efficacy, H1975 cells, 4uM, given as fraction, Repeat 1-3
[9] = Homo sapiens, NCI-H1975, read-out: Inhibitory efficacy, H1975 cells, 8uM, given as fraction, Repeat 1-3
[10] = Homo sapiens, NCI-H1975, read-out: Inhibitory efficacy, H1975 cells, 16uM, given as fraction, Repeat 1-3
[11] = 0.3 nM, duplicate wells, calculated from A450
[12] = 0.3 nM, duplicate wells, calculated from A450, 0.0003 µM
[13] = 3000 nM, duplicate wells, calculated from A450
[14] = 3000 nM, duplicate wells, calculated from A450, 3 µM
[15] = 30000 nM, duplicate wells, calculated from A450
[16] = 30000 nM, duplicate wells, calculated from A450, 30 µM
[17] = Homo sapiens, A549, read-out: Inhibitory efficacy, A549 cells, 8uM, given as fraction, Repeat 1-3
[18] = Homo sapiens, A549, read-out: Inhibitory efficacy, A549 cells, 16uM, given as fraction, Repeat 1-3

## COCCOc1cc2ncnc(Nc3cccc(-c4cn(-c5ccccc5Cl)nn4)c3)c2cc1OCCOC [e8, [6,7-Bis-(2-methoxy-ethoxy)-quinazolin-4-yl]-{3-[1-(2-chloro-phenyl)-1H-[1,2,3]triazol-4-yl]-phenyl}-amine]
H1975 cells; [1]
  Inhibitory efficacy: 0.1767 and 0.1612
H1975 cells; [2]
  Inhibitory efficacy: 0.1999 and 0.1391
H1975 cells; [3]
  Inhibitory efficacy: 0.3925 and 0.388
H1975 cells; [4]
  Inhibitory efficacy: 0.5795 and 0.574
H1975 cells; [5]
  Inhibitory efficacy: 0.6879 and 0.6171
H1975 cells; [6]
  IC50: 7.19 ± 0.68 µM
H1975 cells; [7]
  inhibition at 1 µM: 16.1%
H1975 cells; Homo sapiens, NCI-H1975, read-out: Inhibitory efficacy, H1975 cells, 2uM, given as fraction, Repeat 1-3
  inhibition at 2 µM: 19.8%
H1975 cells; [8]
  inhibition at 4 µM: 39.9%
H1975 cells; [9]
  inhibition at 8 µM: 51.1%
H1975 cells; [10]
  inhibition at 16 µM: 64.1%
wild-type EGFR; [11]
  inhibition at 0.0003 µM: 14.4%
wild-type EGFR; [12]
  Inhibition: 7.895
wild-type EGFR; 3 nM, duplicate wells, calculated from A450
  inhibition at 0.003 µM: 15.7%
wild-type EGFR; 3 nM, duplicate wells, calculated from A450, 0.003 µM
  Inhibition: 18.5965
wild-type EGFR; 30 nM, duplicate wells, calculated from A450
  inhibition at 0.03 µM: 17.9%
wild-type EGFR; 30 nM, duplicate wells, calculated from A450, 0.03 µM
  Inhibition: 21.4035
wild-type EGFR; 300 nM, duplicate wells, calculated from A450
  inhibition at 0.3 µM: 28.8%
wild-type EGFR; 300 nM, duplicate wells, calculated from A450, 0.3 µM
  Inhibition: 23.1579
wild-type EGFR; [13]
  inhibition at 3 µM: 43%
wild-type EGFR; [14]
  Inhibition: 40.5263
wild-type EGFR; [15]
  inhibition at 30 µM: 91%
wild-type EGFR; [16]
  Inhibition: 89.8246
wild-type EGFR
  IC50: 1.99 µM
PC-9 cells
  IC50: > 100 µM
  inhibition at 4 µM: 17.4%
  inhibition at 8 µM: 26.3%
  inhibition at 16 µM: 13.4%
PC-9 cells; PC-9, 4uM, 4 µM
  Inhibitory efficacy: 0.2895 and 0.3075
PC-9 cells; PC-9, 8uM, 8 µM
  Inhibitory efficacy: 0.1686 and 0.3213
PC-9 cells; PC-9, 16uM, 16 µM
  Inhibitory efficacy: 0.1771 and 0.2089
H460 cells; H460, 1uM, 1 µM
  Inhibitory efficacy: 0.1177 and 0.197
H460 cells; H460, 2uM, 2 µM
  Inhibitory efficacy: 0.3433 and 0.3114
H460 cells; H460, 4uM, 4 µM
  Inhibitory efficacy: 0.6025 and 0.5869
H460 cells; H460, 8uM, 8 µM
  Inhibitory efficacy: 0.6548 and 0.6973
H460 cells; H460, 16uM, 16 µM
  Inhibitory efficacy: 0.6875 and 0.7414
H460 cells; Homo sapiens, NCI-H460, 48 h, read-out: IC50 (μM) H460, CCK-8, 48 h, average ± SD of three independent experiments
  IC50: 4.18 ± 0.49 µM
H460 cells; Homo sapiens, NCI-H460, read-out: Inhibitory efficacy, H460, 1uM, single repeats (Repeat 1-3), given as fraction
  inhibition at 1 µM: 14.2%
H460 cells; Homo sapiens
  inhibition at 2 µM: 35.8%
  inhibition at 4 µM: 48.3%
  inhibition at 8 µM: 66.5%
  inhibition at 16 µM: 66.8%
other
  melting point: 131 to 134 °C
A549 cells; [4]
  Inhibitory efficacy: 0.2217 and 0.2238
A549 cells; [5]
  Inhibitory efficacy: 0.3678 and 0.3836
A549 cells; Homo sapiens, A549, 48 h, read-out: IC50 (μM) A549, CCK-8, 48 h, average ± SD of three independent experiments
  IC50: 23 ± 0.75 µM
A549 cells; [17]
  inhibition at 8 µM: 18.4%
A549 cells; [18]
  inhibition at 16 µM: 42.9%

## COCCOc1cc2ncnc(Nc3cccc(-c4cn(-c5ccccc5Br)nn4)c3)c2cc1OCCOC [e9, [6,7-Bis-(2-methoxy-ethoxy)-quinazolin-4-yl]-{3-[1-(2-bromo-phenyl)-1H-[1,2,3]triazol-4-yl]-phenyl}-amine]
H1975 cells; [1]
  Inhibitory efficacy: 0.171 and 0.2074
H1975 cells; [3]
  Inhibitory efficacy: 0.4371 and 0.3791
H1975 cells; [4]
  Inhibitory efficacy: 0.5337 and 0.5679
H1975 cells; [5]
  Inhibitory efficacy: 0.6418 and 0.6475
H1975 cells; [6]
  IC50: < 10 µM
H1975 cells; [7]
  inhibition at 1 µM: 15.5%
H1975 cells; [8]
  inhibition at 4 µM: 37.6%
H1975 cells; [9]
  inhibition at 8 µM: 58%
H1975 cells; [10]
  inhibition at 16 µM: 66.8%
H1975 cells; read-out: IC50 (μM) H1975, CCK-8, 48 h, average ± SD of three independent experiments
  IC50: 6.86 ± 0.17 µM
wild-type EGFR; [11]
  inhibition at 0.0003 µM: 0.816%
wild-type EGFR; [12]
  Inhibition: 0.7055
wild-type EGFR; [13]
  inhibition at 3 µM: 41.4%
wild-type EGFR; [14]
  Inhibition: 44.4444
wild-type EGFR; [15]
  inhibition at 30 µM: 89.8%
wild-type EGFR; [16]
  Inhibition: 89.9471
wild-type EGFR
  IC50: 3.83 µM
PC-9 cells
  IC50: 7.63 ± 1.69 µM
  inhibition at 4 µM: 42.1%
  inhibition at 8 µM: 57.9%
  inhibition at 16 µM: 54.2%
PC-9 cells; PC-9, 4uM, 4 µM
  Inhibitory efficacy: 0.4231 and 0.428
PC-9 cells; PC-9, 8uM, 8 µM
  Inhibitory efficacy: 0.5458 and 0.6686
PC-9 cells; PC-9, 16uM, 16 µM
  Inhibitory efficacy: 0.5655 and 0.5078
H460 cells; H460, 2uM, 2 µM
  Inhibitory efficacy: 0.3746 and 0.3508
H460 cells; H460, 4uM, 4 µM
  Inhibitory efficacy: 0.6113 and 0.6209
H460 cells; H460, 8uM, 8 µM
  Inhibitory efficacy: 0.7678 and 0.7392
H460 cells; H460, 16uM, 16 µM
  Inhibitory efficacy: 0.7559 and 0.7615
H460 cells; Homo sapiens
  inhibition at 2 µM: 40.3%
  inhibition at 4 µM: 72.6%
  inhibition at 8 µM: 76.5%
  inhibition at 16 µM: 77.3%
other
  melting point: 93 to 97 °C
A549 cells; [1]
  Inhibitory efficacy: 0.1197 and 0.1367
A549 cells; [2]
  Inhibitory efficacy: 0.3287 and 0.2555
A549 cells; [3]
  Inhibitory efficacy: 0.8462 and 0.8405
A549 cells; [4]
  Inhibitory efficacy: 0.9628 and 0.9656
A549 cells; [5]
  Inhibitory efficacy: 0.9642 and 0.9671
A549 cells; Homo sapiens, A549, read-out: Inhibitory efficacy, A549 cells, 1uM, given as fraction, Repeat 1-3
  inhibition at 1 µM: 16%
A549 cells; Homo sapiens, A549, read-out: Inhibitory efficacy, A549 cells, 2uM, given as fraction, Repeat 1-3
  inhibition at 2 µM: 26.7%
A549 cells; Homo sapiens, A549, read-out: Inhibitory efficacy, A549 cells, 4uM, given as fraction, Repeat 1-3
  inhibition at 4 µM: 82.8%
A549 cells; [17]
  inhibition at 8 µM: 95.9%
A549 cells; [18]
  inhibition at 16 µM: 96.6%
